According to US6403816B1 (Dabur Research Foundation, priority 1997, dated 2002):

Legend:
[1] = system: human melanoma cell lines, Mel-1, Mel-2, and Mel-4; details: Mel-1, Mel-2, Mel-4; cited from earlier work
MEL-2 cells = details: cited from earlier work
[2] = system: A431, BC-1, COL-2, HT1080, KB, LNCaP, LU-1, U373, ZR-75-1; details: cited from earlier work
ECV304 [3] = test: ECV304 endothelial cell proliferation, MTT assay; format: cell-based, human; details: concentration causing 50% cytotoxicity; MTT after 72 hours
Protocol: 30 μl of ECV304 cell suspension (50×10^4 cells/ml in RPMI 1640 containing 10% FBS) followed by 150 μl of medium was added to the wells of a 96-well tissue culture plate (Nunc, Denmark) and incubated (37° C., 5% CO2) overnight. […] Each concentration was plated in triplicates. 20μl of medium alone was added to control wells. After 72 hours of incubation an MTT assay (Mosmann, 1983) was performed and percentage inhibition in proliferation of treated cells was calculated with respect to control cells.

DU145 = test: Tumor cell cytotoxicity assay, prostate; format: cell-based; details: for Prostate ECS Ratio: ED50 DU145 / ED50 ECV304; for Prostate DU145 (ED50): concentration causing 50% cytotoxicity
Excerpt: (§1) The cytotoxicity assays for tumor cells have been described in detail in our application Ser. No. 09/040,856 filed in U.S. on Mar. 18, 1998.

L132 = test: Tumor cell cytotoxicity assay, lung; format: cell-based; details: for Lung ECS Ratio: ED50 L132 / ED50 ECV304; for Lung L132 (ED50): concentration causing 50% cytotoxicity
Excerpt: as §1

PA-1 = test: Tumor cell cytotoxicity assay, ovary; format: cell-based; details: for Ovary ECS Ratio: ED50 PA-1 / ED50 ECV304; for Ovary PA-1 (ED50): concentration causing 50% cytotoxicity
Excerpt: as §1

HT-29 = test: Tumor cell cytotoxicity assay, colon; format: cell-based; details: for Colon ECS Ratio: ED50 HT-29 / ED50 ECV304; for Colon HT-29 (ED50): concentration causing 50% cytotoxicity
Excerpt: as §1

ECV304 [4] = test: Tube-like-structure (TLS) formation of ECV304 cells on Matrigel; format: cell-based, human; details: 24-48 hours
Protocol: Matrigel (70 μl) was placed into each well of a 96-well culture plate at 4° C. and was allowed to polymerize by incubation at 37° C. for 30 min. ECV304 (1×10^4) cells were seeded on the Matrigel in 200 μl DMEM containing 10% FBS. […] Five different phase-contrast microscopic fields (4×) were viewed and total tube area of the tube-like-structures (TLS) measured using Video Pro 32 Image Analysis system. Percent reduction in total tube area was given as the mean of the data from five fields. Percent inhibition of TLS was calculated with reference to Controls(no drug).

Row | Structure (SMILES) | Growth of melanoma cell lines [1] | In vitro growth of MEL-2 cells (MEL-2 cells) | ED50, other cell lines tested [2] | Endothelial ECV304 (ED50) (ECV304 [3]) [µg/mL] | Prostate ECS Ratio (DU145) | Prostate DU145 (ED50) (DU145) [µg/mL] | Lung ECS Ratio (L132) | Lung L132 (ED50) (L132) [µg/mL] | Ovary ECS Ratio (PA-1) | Ovary PA-1 (ED50) (PA-1) [µg/mL] | Colon ECS Ratio (HT-29) | Colon HT-29 (ED50) (HT-29) [µg/mL] | % reduction in total tube area (ECV304 [4]; 0.5 μg/ml) [%] | % reduction in total tube area (ECV304 [4]; 2 μg/ml) [%] | % reduction in total tube area (ECV304 [4]; 4 μg/ml) [%]
1 | C=C(C)[C@@H]1CC[C@]2(C(=O)O)CC[C@]3(C)[C@H](CC[C@@H]4[C@@]5(C)CC[C@H](O)C(C)(C)[C@@H]5CC[C@]43C)[C@@H]12 [Betulinic acid] | inhibited significantly | inhibit in vitro growth | greater than 20 μg/ml | – | – | – | – | – | – | – | – | – | – | – | –
2 | C=C(C)C1CCC2(C(=O)O)CCC3(C)C(CCC4C5(C)CCC(=NNc6ccccc6)C(C)(C)C5CCC43C)C12 (stereo not drawn) [MJ353-RS] | – | – | – | 2.4 | 2.7 | 6.5 | 1.9 | 4.5 | 2.08 | 5 | 4.2 | >10 | – | – | –
3 | COC(=O)CCOC(=O)C12CCC(C(C)(Br)CBr)C1C1CCC3C4(C)CC(Br)C(=O)C(C)(C)C4CCC3(C)C1(C)CC2 (stereo not drawn) [MJ548-RS] | – | – | – | 2.5 | >4 | >10 | >4 | >10 | 1.56 | 3.9 | 4.0 | >10 | – | – | –
4 | CC(C)C1CCC2(C(=O)O)CCC3(C)C(CCC4C5(C)CCC(NNc6ccccc6)C(C)(C)C5CCC43C)C12 (stereo not drawn) [MJ878-RS] | – | – | – | 0.5 | 19.8 | 9.9 | 1.6 | 0.8 | 7.0 | 3.5 | 3.5 | 1.75 | – | – | –
5 | COc1ccc(NNC2CCC3(C)C(CCC4(C)C3CCC3C5C(C(C)C)CCC5(C(=O)O)CCC34C)C2(C)C)cc1 (stereo not drawn) [MJ912-RS] | – | – | – | 0.4 | 21.1 | 8.5 | >10 | >4 | – | – | 0.87 | 0.35 | – | – | –
6 | CC(C)C1CCC2(C(=O)O)CCC3(C)C(CCC4C5(C)CCC(OC(=O)c6cc(F)cc(F)c6)C(C)(C)C5CCC43C)C12 (stereo not drawn) [MJ935-RS] | – | – | – | 0.7 | 4.5 | 3.2 | 1.7 | 1.2 | – | – | >14.3 | >10 | – | – | –
7 | CC(C)C1CCC2(C(=O)O)CCC3(C)C(CCC4C5(C)CCC(OC(=O)c6ccc(F)cc6F)C(C)(C)C5CCC43C)C12 (stereo not drawn) [MJ937-RS] | – | – | – | 0.7 | 3.5 | 2.5 | 1.5 | 1.1 | 2.3 | 1.6 | 2.4 | 1.7 | 16.7 | 21 | 21.7
8 | C=C(C)C1CCC2(C(=O)O)CCC3(C)C(CCC4C5(C)CCC(OC(=O)c6cccc(C(F)(F)F)c6)C(C)(C)C5CCC43C)C12 (stereo not drawn) [MJ939-RS] | – | – | – | 0.9 | >11.1 | >10 | 3.0 | 2.7 | >4.4 | >4 | >11.1 | >10 | – | – | –
9 | CC(C)C1CCC2(C(=O)O)CCC3(C)C(CCC4C5(C)CCC(OC(=O)c6ccccc6C(F)(F)F)C(C)(C)C5CCC43C)C12 (stereo not drawn) [MJ943-RS] | – | – | – | 2.6 | >1.5 | >4 | 1.5 | 4 | >1.53 | >4 | 3.84 | >10 | – | – | –
10 | CC(C)C1CCC2(C(=O)O)CCC3(C)C(CCC4C5(C)CCC(N=Cc6ccc(F)c(F)c6)C(C)(C)C5CCC43C)C12 (stereo not drawn) [MJ998-RS] | – | – | – | 0.35 | 6.2 | 2.2 | 7.1 | 2.5 | 3.7 | 1.3 | 11.4 | 4 | 21.1 | 13.4 | 33.4
11 | CC(C)C1CCC2(C(=O)O)CCC3(C)C(CCC4C5(C)CCC(N=Cc6ccc(F)cc6F)C(C)(C)C5CCC43C)C12 (stereo not drawn) [MJ1065-RS] | – | – | – | 2.4 | 1.04 | 2.5 | 1.4 | 3.4 | 0.54 | 1.3 | 2.04 | 4.9 | 23.4 | 16.7 | 46.7
12 | CC(C)C1CCC2(C(=O)O)CCC3(C)C(CCC4C5(C)CCC(=NOCc6ccc([N+](=O)[O-])cc6)C(C)(C)C5CCC43C)C12 (stereo not drawn) [MJ1098-RS] | – | – | – | 0.6 | 2.5 | 1.5 | 2.1 | 1.3 | 2.7 | 1.6 | 4.3 | 2.6 | 15 | 7.5 | 10
13 | C=CC(=O)OC(=O)C12CCC(C(=C)C)C1C1CCC3C4(C)CCC(O)C(C)(C)C4CCC3(C)C1(C)CC2 (stereo not drawn) [MJ1101-RS] | – | – | – | 4.0 | >2.5 | >10 | 0.43 | 1.7 | >1 | >4 | 2.5 | >10 | – | – | –
14 | C=CC(=O)OC(=O)C12CCC(C(C)C)C1C1CCC3C4(C)CCC(O)C(C)(C)C4CCC3(C)C1(C)CC2 (stereo not drawn) [MJ1103-RS] | – | – | – | 2.0 | >2.0 | >4 | 2.0 | 4 | 0.75 | 1.5 | 5.0 | 10 | – | – | –
15 | C=C(C)C1CCC2(C(=O)O)CCC3(C)C(CCC4C5(C)CCC(OC(=O)c6ccc(CCCCC)cc6)C(C)(C)C5CCC43C)C12 (stereo not drawn) [MJ1104-RS] | – | – | – | 1.9 | 1.05 | 2 | 3.1 | 5.9 | >2.1 | >4 | 1.84 | 3.5 | – | – | –
16 | C=C(C)C1CCC2(C(=O)O)CCC3(C)C(CCC4C5(C)CCC(OC(=O)Cc6cc(OC)ccc6OC)C(C)(C)C5CCC43C)C12 (stereo not drawn) [MJ1108-RS] | – | – | – | 1.8 | 0.55 | 1 | 2.5 | 4.6 | – | – | >5.6 | >10 | – | – | –
17 | C=C(C)C1CCC2(C(=O)O)CCC3(C)C(CCC4C5(C)CCC(OC(=O)c6ccc(CCCCCCC)cc6)C(C)(C)C5CCC43C)C12 (stereo not drawn) [MJ1138-RS] | – | – | – | 1.7 | >5.8 | >10 | 4.1 | 7 | >2.3 | >4 | >5.89 | >10 | – | – | –
